Values joined by “and” are separate entries in the source; they are usually repeats but may differ in a detail not shown here. Identical values can stand only once. Like-named read-outs stand apart in the source and are kept apart here.
Columns and labels:
Format in all cases: cell-based
HCI-037 PDxO cells = experiment: QPI on cells from patient-derived organoid HCI-037 (primary lesion); conditions: HCI-037, 48 h imaging, 3-parameter Hill model
Procedure: (§1) In some embodiments, the QPI microscope system 110 performs QPI on cells from patient-derived organoids and direct-from-patient samples. For example, the electronic controller 155 analyzes data on cells from a set of 5 organoids representing samples collected from two patients, as illustrated by a workflow 3400 in FIG. 24. The workflow 3400 is an experiment workflow illustrating how assays are analyzed by the QPI microscope system 110. In some embodiments, the QPI microscope system 110 images cells for 48 h, and uses an automatic segmentation algorithm, via the electronic controller 155, to identify individual cells from background, as shown in images 3405 and 3410 of FIG. 24. […] The electronic controller 155 determines the mass of each cell by summing the cell mass over the segmented area. In some embodiments, plots of mass over time reveal single cell growth rates, as shown by graph 3415 of FIG. 24. The graph 3415 is a mass vs. time plot showing DMSO treated cells growing cells at a typical location. Cells outlined in green are shown as green on the plot, other growing cells are shown in purple. The electronic controller 155 determine the specific growth rate (SGR) by fitting a line to time-series mass measurements and normalizing by an initial mass predicted by the fit to account for the effect of cell size on growth rate. The electronic controller 155 fits SGR as a function of dose to a sigmoidal dose response curve using a 3-parameter Hill model to extract dose response measurements, as shown by graph 3420 of FIG. 24. […] In some embodiments, EC50 measured by the QPI microscope system 110 is strongly concordant with gold standard techniques such as CTG over 27 conditions (e.g., 9 compounds, 3 breast cancer cell lines). […] As with cell line data, QPI data on cells from PDxO resolves differences in temporal dynamics of response to therapy, as shown in graph 3425 of FIG. 24. […] In some embodiments, the electronic controller 155 is configured to determine a drug response of each of the plurality of treatment samples from patient derived organoids.
The graphs 3500 includes graph A of the graphs 3500 showing normalized mass vs. time for HCI-037 (primary), HCI-038 (metastatic), and HCI-039 (pleural effusion) showing reduction in growth as concentration increases. Graphs B, C, D, and E of the graphs 3500 show dose response plots showing the differential response between different disease models. Graphs F, G, H, and I of the graphs 3500 show Hellinger distance vs. time plots showing the time of response for the different models treated with various therapies. In some embodiments, HCI-037, HCI-038, and HCI-039, PDxO models are used that are derived from primary lesion, bone metastasis, and pleural effusion, respectively, at different time points from a single patient during the course of treatment and progressive disease. In some embodiments, the electronic controller 155 is configured to determine a difference drug response from patient derived organoids. In some embodiments, the patient derived organoids are tumor organoids.

MDA-MB-231 cells = experiment: Quantitative phase imaging (QPI) growth response, MDA-MB-231; design: DoR QPI: scale not given here; ToR 20 μM: unit not given here; conditions: for Max Asymptote / Min Asymptote: MDA-MB-231, 4-parameter Hill fit of mean SGR vs concentration, one line per replicate; for DoR QPI: depth of response; for ToR 20 μM: time of response at 20 μM; for SGR (specific growth rate) / tD: one individual MDA-MB-231 cell, 2 μM doxorubicin
Description: In some embodiments, breast cancer cell lines are imaged, representing diverse clinical subtypes, summarized in Table 2 below, using a QPI microscope (FIG. 1A) based on differential phase contrast (DPC) microscopy and phase reconstruction via a QPI microscope system. DPC is used for image acquisition and phase reconstruction because DPC's flexible design may be customized for high throughput phase measurements. […] As illustrated in the embodiment of FIG. 1A, a QPI microscope system 100 conducts assays in a 96-well plate (e.g., a well-plate 105) with 6-point dose response curves and up to five therapies in triplicate including solvent controls, summarized in Table 4 below. As described below, in reference to FIG. 1A, a growth response of cells is measured noninvasively using QPI via a QPI microscope system 110 before being assayed using a CTG reader 115.
FIG. 1B illustrates a timeline plot 200 showing two plates (e.g., two, separate well-plates 105) set up in parallel to measure cell viability. With reference to FIG. 1B, two plates are set-up simultaneously for each experiment. A first plate 205 is incubated for 27 hours (h) post drug exposure prior to CTG analysis (3 h equilibration+24 h of imaging), which measures cell adenosine triphosphate (ATP) content as a surrogate for cell viability. A second plate 210 is imaged for 72 h after 3 h equilibration (e.g., 75 h) and followed by CTG. […] The imaging locations are imaged for 72 h, as shown by images 1700-1715 of FIG. 7.
In some embodiments, a dose-dependent change in growth, as indicated by a change in the rate of mass accumulation or loss, is a parameter that can be extracted from QPI dose-response data. […] Individual specific growth rate measurements are indicated by points in the distribution of the graph 1200 of FIG. 2A. Blue is indicative of the DMSO control and red is indicative of doxorubicin. The black outline is a kernel density function fit to the distribution of specific growth rates for each condition (e.g., *p<0.05, **p<0.01). In some embodiments, the average SGR of each condition is fit to a sigmoid dose-response curve using a Hill equation. For example, computed logistic fit parameters using a 4-parameter Hill model via the QPI microscope system 110 for all conditions are summarized in Tables 5-8 below. To determine if there is a response, as illustrated by FIG. 2B, the QPI microscope system 110 tests goodness of fit, adjusts for degrees of freedom using an F-test at significance p<0.01 by comparison to a flat line, as an indicator of no response. For cases with a better fit to the Hill equation, the 4-parameter Hill curve may be used by the QPI microscope system 110 to determine the EC50, a measure of sensitivity to therapy because it represents the effective concentration at which 50% of the cells respond to therapy, as illustrated by FIG. 10. […] A 4-parameter Hill curve is fit to each dose response plot to extract the depth of response and EC50 for each cell/drug pair. A flat line represents no response due to failure of the F-test to reject the null hypothesis that the logistic fit is indistinguishable from a flat line. […] Each color indicates a different drug or therapy used.

HCI-038 PDxO cells = experiment: QPI on cells from patient-derived organoid HCI-038 (bone metastasis); conditions: HCI-038, bone metastasis
Procedure: In some embodiments, the QPI microscope system 110 performs QPI on cells from patient-derived organoids and direct-from-patient samples. For example, the electronic controller 155 analyzes data on cells from a set of 5 organoids representing samples collected from two patients, as illustrated by a workflow 3400 in FIG. 24. The workflow 3400 is an experiment workflow illustrating how assays are analyzed by the QPI microscope system 110. In some embodiments, the QPI microscope system 110 images cells for 48 h, and uses an automatic segmentation algorithm, via the electronic controller 155, to identify individual cells from background, as shown in images 3405 and 3410 of FIG. 24. […] The electronic controller 155 determines the mass of each cell by summing the cell mass over the segmented area. In some embodiments, plots of mass over time reveal single cell growth rates, as shown by graph 3415 of FIG. 24. The graph 3415 is a mass vs. time plot showing DMSO treated cells growing cells at a typical location. Cells outlined in green are shown as green on the plot, other growing cells are shown in purple. […] In some embodiments, EC50 measured by the QPI microscope system 110 is strongly concordant with gold standard techniques such as CTG over 27 conditions (e.g., 9 compounds, 3 breast cancer cell lines). […]

HCI-039 PDxO cells = experiment: QPI on cells from patient-derived organoid HCI-039 (pleural effusion); conditions: HCI-039, pleural effusion
Procedure: as §1, with “organoids. […]” for “organoids.”

[1] = 72 h QPI, MDA-MB-231, Hill fit, EC50 in μM per Table 1
[2] = Homo sapiens, MDA-MB-231, MDA-MB-231 cell line, EC50 of the standard deviation, read-out: EC50, SD (converted)
[3] = Homo sapiens, MDA-MB-231, MDA-MB-231 cell line, QPI growth rate, read-out: EC50, QPI
[4] = MDA-MB-231, highest concentration, FIG. 21 F

Row | Compound | dose response (SGR vs dose) (HCI-037 PDxO cells) | Max Asymptote (MDA-MB-231 cells; 24 h QPI) | Min Asymptote (MDA-MB-231 cells; 24 h QPI) | Max Asymptote (MDA-MB-231 cells; 72 h QPI) | Min Asymptote (MDA-MB-231 cells; 72 h QPI) | Hill Slope (MDA-MB-231 cells; 72 h QPI, MDA-MB-231, Hill fit) | log10(EC50) (MDA-MB-231 cells; [1]) | EC50 (MDA-MB-231 cells; [2]) | EC50 (MDA-MB-231 cells; [3]) | growth rate and heterogeneity over time (MDA-MB-231 cells; [4]) | DoR QPI (MDA-MB-231 cells; MDA-MB-231 cell line) | ToR 20 μM (MDA-MB-231 cells; MDA-MB-231 cell line) | further results
1 | COc1cccc2c1C(=O)c1c(O)c3c(c(O)c1C2=O)C[C@@](O)(C(=O)CO)C[C@@H]3O[C@H]1C[C@H](N)[C@H](O)[C@H](C)O1 [Doxorubicin] | strong response | 0.03123 and 0.03492 and 0.03444 | 0.002229 and 0.006476 and 0.003476 | 0.0002323 and 0.002183 | 0.03291 and 0.03136 | 0.9982 and 1.1886 | 1.0414 | 0.549 µM | 0.1 µM | simultaneously decreases in growth rate and heterogeneity | 1.0 | −3.0 | Hill Slope (MDA-MB-231 cells; 24 h QPI, MDA-MB-231, Hill fit): 1.1528 and 1.2328 and 1.1155; EC50 (MDA-MB-231 cells; Homo sapiens, MDA-MB-231, 72 h, 72 h QPI, MDA-MB-231, Hill fit, EC50 in μM per Table 1, read-out: log10(EC50) (converted)): 0.0794 µM; Hellinger distance of SGR distribution from control (MDA-MB-231 cells; MDA-MB-231, 0.08 μM): greater than the threshold indicating a response; Hellinger distance of SGR distribution from control (MDA-MB-231 cells; MDA-MB-231, 0.4 μM): much greater Hellinger distance from the control; reduction of heterogeneity (SD of growth rates) (MDA-MB-231 cells; MDA-MB-231, 20 μM, 72 h): fourfold; growth rate and heterogeneity over time (MDA-MB-231 cells; MDA-MB-231, middle concentrations, FIG. 21 C-E): change in growth rate over time with little to no change in heterogeneity; SGR (specific growth rate) (MDA-MB-231 cells; abrupt decrease in mass during cell death): -0.217 h⁻¹; tD (MDA-MB-231 cells; first 10 h): 19 h; SGR (specific growth rate) (MDA-MB-231 cells; first 10 h, robust growth): 0.0358 h⁻¹; tD (MDA-MB-231 cells; next 26 h): 66 h; SGR (specific growth rate) (MDA-MB-231 cells; next 26 h, reduced growth): 0.0105 h⁻¹; SGR (specific growth rate) (MDA-MB-231 cells; subsequent gradual loss of mass): -0.0033 h⁻¹
2 | CC[C@]1(O)C[C@@H]2CN(CCc3c([nH]c4ccccc34)[C@@](C(=O)OC)(c3cc4c(cc3OC)N(C)[C@H]3[C@@](O)(C(=O)OC)[C@H](OC(C)=O)[C@]5(CC)C=CCN6CC[C@]43[C@@H]65)C2)C1 [Vinblastine] | lesser response | 0.02419 and 0.02824 and 0.03124 | 0.0149 and 0.01503 and 0.01517 | 0.007654 and 0.0105 and 0.007938 | 0.03001 and 0.01871 and 0.03086 | – | – | 14.9 µM | 0.4 µM | – | 0.8 | 4.7 | response compared with primary lesion model (HCI-038 PDxO cells): stronger response; growth rate and heterogeneity over time (MDA-MB-231 cells; MDA-MB-231): decrease in growth rate and heterogeneity simultaneously; growth rate and heterogeneity over time (MDA-MB-231 cells; MDA-MB-231, 0.4 μM): decrease in growth rate and heterogeneity simultaneously; growth rate and heterogeneity over time (MDA-MB-231 cells; MDA-MB-231, 2 μM): decrease in growth rate and heterogeneity simultaneously; growth rate and heterogeneity over time (MDA-MB-231 cells; MDA-MB-231, 20 μM): decrease in growth rate and heterogeneity simultaneously; growth rate and heterogeneity as concentration increases (MDA-MB-231 cells; MDA-MB-231, FIG. 22): decrease in growth rate and heterogencity simultaneously; growth rate and heterogeneity over time (MDA-MB-231 cells; MDA-MB-231, lowest concentrations, FIG. 21 G-H): growth rate decreases over time with little change in heterogeneity; response compared with primary lesion model (HCI-039 PDxO cells): stronger response
3 | CCC(=C(c1ccc(O)cc1)c1ccc(OCCN(C)C)cc1)c1ccccc1 [4HT, 4-hydroxy-Tamoxifen] | strong response | 0.02875 and 0.03107 and 0.03303 | 0.007676 and 0.007611 and −0.003024 | −0.006134 and −0.01506 and −0.008455 | 0.02885 and 0.03029 and 0.03246 | 2.0951 and 2.4347 and 1.6101 | −1.2344 and −1.2249 and −1.0505 | – | – | first decreases in growth rate and then decreases in heterogeneity | 1.3 | 1.0 | log10(EC50) (MDA-MB-231 cells; 24 h QPI, MDA-MB-231, Hill fit, EC50 in μM per Table 1): −1.2332 and −1.2248 and −1.2436; mean SGR vs SD of growth parameterized by time (MDA-MB-231 cells; MDA-MB-231, maximal concentration, FIG. 5D): reduction in growth rate before heterogeneity is affected; EC50 (MDA-MB-231 cells; MDA-MB-231 cell line, QPI growth rate, read-out: EC50, QPI): 15.1 µM
